According to patent US7772270B2, “Imino acid derivatives as inhibitors of matrix metalloproteinases” (sanofi-aventis Deutschland GmbH, priority 2003, dated 2010):

Experiments:
[1] = target: T1, catalytic domain of human neutrophilic collagenase (MMP-8) (Homo sapiens, UniProt P22894); assay: Enzymatic activity of the catalytic domain of human neutrophilic collagenase (MMP-8), fluorogenic substrate; format: biochemical; details: 15 min preincubation, pH 7.5, fluorescence 328/393 nm
T1 construct: catalytic domain of human stromelysin (MMP-3) and neutrophilic collagenase (MMP-8); made in house
T1 sequence (P22894 100-262 limits assumed): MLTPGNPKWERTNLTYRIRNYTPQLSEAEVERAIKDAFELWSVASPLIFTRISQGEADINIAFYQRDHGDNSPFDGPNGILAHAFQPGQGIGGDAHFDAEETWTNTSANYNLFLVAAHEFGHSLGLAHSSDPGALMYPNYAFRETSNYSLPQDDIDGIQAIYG
Description: (§1) The two enzymes, i.e., stromelysin (MMP-3) and neutrophilic collagenase (MMP-8), were prepared as described in Ye et al. (Biochemistry; 31 (1992) pages 11231-11235). For measuring enzymatic activity or the effect of an enzyme inhibitor, 70 μl of buffer solution and 10 μl of enzyme solution are incubated, for 15 minutes and at a physiological pH, with 10 μl of a 10% (v/v) aqueous solution of dimethyl sulfoxide containing the enzyme inhibitor, where appropriate. After 10 μl of a 10% (v/v) aqueous solution of dimethyl sulfoxide containing 1 mmol of the substrate/l have been added, the enzyme reaction is monitored by fluorescence spectroscopy (328 nm (ex)/393 nm(em)).
(§2) The enzyme activity is recorded as increase in […]/minute. The IC50 values listed in table 2 are determined as the inhibitor concentrations that in each case lead to 50% inhibition of the enzyme.
(§3) The buffer solution contains 0.05% Brij (Sigma, Deisenhofen, Germany) and also 0.1 mol of Tris/HCl/l, 0.1 mol of NaCl/l, 0.01 mol of CaCl2/l and 0.1 mol of piperazine-N,N′-bis[2-ethanesulfonic acid]/l (pH=7.5). The enzyme solution contains 5 μg/ml of one of the enzyme domains prepared as described in Ye et al. The substrate solution contains 1 mmol of the fluorogenic substrate (7-methoxycoumarin-4-yl)acetyl-Pro-Leu-Gly-Leu-3-(2′,4′-dinitrophenyl)-L-2,3-diaminopropionyl-Ala-Arg-NH2/A (Bachem, Heidelberg, Germany).

[2] = target: T2, catalytic domain of human stromelysin (MMP-3) (Homo sapiens, UniProt P08254); assay: Enzymatic activity of the catalytic domain of human stromelysin (MMP-3), fluorogenic substrate; format: biochemical; details: 15 min preincubation, pH 7.5, fluorescence 328/393 nm
T2 construct: enzymatic activity of the catalytic domain of human stromelysin (MMP-3); made in house
T2 sequence (P08254 100-272 limits assumed): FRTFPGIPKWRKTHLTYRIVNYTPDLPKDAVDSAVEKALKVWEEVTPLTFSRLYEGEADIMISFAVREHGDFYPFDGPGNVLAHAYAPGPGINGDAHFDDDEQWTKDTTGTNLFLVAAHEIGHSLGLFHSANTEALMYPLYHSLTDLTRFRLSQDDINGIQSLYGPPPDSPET
Description: as §1, §2, §3

SMILES | IC50 [1] [nM] | IC50 [2] [nM]
O=C(NO)C1C[C@H]2CCC[C@H]2N1S(=O)(=O)c1ccc(-c2ccc(N3CCN(c4ccc(F)cc4)CC3)cc2)cc1 (single isomer, unassigned) [Example 63] | 3700 | 200
O=C(NO)[C@H]1C[C@H]2CCC[C@H]2N1S(=O)(=O)/C=C/c1ccccc1 [Example 57] | 320 | 330
O=C(O)C1C[C@H]2CCC[C@H]2N1S(=O)(=O)CCc1ccc(-c2ccc(Br)cc2)cc1 (stereo partly shown) [Example 13] | 200 | 200
O=C(O)[C@H]1C[C@H]2CCC[C@H]2N1S(=O)(=O)c1ccc(-c2ccc(N3CCN(c4ccc(F)cc4)CC3)cc2)cc1 [Example 29] | 10000 | > 10000

Compounds with a lower IC50 [1], results first:

IC50 [1] [nM] | IC50 [2] [nM] | SMILES
100 | 300 | O=C(NO)C1C[C@H]2CCC[C@H]2N1S(=O)(=O)c1ccc(I)cc1 (single isomer, unassigned) [Example 65]
3 | 22 | O=C(NO)[C@H]1C[C@H]2CCC[C@H]2N1S(=O)(=O)c1ccc(-c2ccc([N+](=O)[O-])cc2)cc1 [Example 61]
4 | 160 | O=C(O)[C@H]1C[C@H]2CCC[C@H]2N1S(=O)(=O)c1ccc(-c2ccc(N3CCCC3)cc2)cc1 [Example 21]
20 | 100 | O=C(NO)[C@H]1C[C@H]2CCC[C@H]2N1S(=O)(=O)c1ccc(-c2ccccc2)cc1 [Example 64]
